Positions of bridges follow the written chain, without caps; N, C: chain ends. Non-standard residues stand in square brackets, D forms with d. Residues, ends and D or L forms follow the SMILES beside them. No end group written: not given here. Orn = NCCC[C@H](N)C(=O)O

The record followed here is publication PMC11531485, “Examining prestructured β-actin peptides as substrates of histidine methyltransferase SETD3” (Scientific Reports, 2024).

The target in series [1] is T1, human SETD3 (Homo sapiens, UniProt Q86TU7).
T1 construct: His6 (N); made in house; host or cells: E. coli BL21(DE3)
T1 sequence (Q86TU7 1-594): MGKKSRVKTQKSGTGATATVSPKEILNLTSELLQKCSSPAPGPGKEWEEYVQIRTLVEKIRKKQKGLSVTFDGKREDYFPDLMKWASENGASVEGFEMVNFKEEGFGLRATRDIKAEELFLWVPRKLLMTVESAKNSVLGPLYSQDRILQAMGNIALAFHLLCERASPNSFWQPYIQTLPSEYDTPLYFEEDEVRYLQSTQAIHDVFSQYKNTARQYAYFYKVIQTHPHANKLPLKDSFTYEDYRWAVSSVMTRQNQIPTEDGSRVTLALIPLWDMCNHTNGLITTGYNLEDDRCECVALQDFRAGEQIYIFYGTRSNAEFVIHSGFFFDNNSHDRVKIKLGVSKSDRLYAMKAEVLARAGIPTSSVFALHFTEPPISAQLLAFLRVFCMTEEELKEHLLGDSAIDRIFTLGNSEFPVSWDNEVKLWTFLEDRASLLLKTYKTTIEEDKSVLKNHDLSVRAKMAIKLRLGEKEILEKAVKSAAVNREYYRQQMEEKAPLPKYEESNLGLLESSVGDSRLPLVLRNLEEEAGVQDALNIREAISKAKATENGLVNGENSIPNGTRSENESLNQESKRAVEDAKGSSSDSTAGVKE
The series is described as follows: MALDI-TOF MS enzymatic substrate scope assay (SETD3-catalyzed methylation of βA peptides). The format is biochemical. The conditions noted are these: 1 µM SETD3, 10 µM βA peptide, 100 µM SAM, 25 mM Tris, 20 mM NaCl, pH 9.0, 37 °C; for SETD3-catalyzed methylation after 3 h: N = 2. The procedure:
We examined conformationally restrained βA peptides and linear controls as substrates for the recombinantly expressed human SETD3 employing MALDI-TOF MS to detect a characteristic + 14 Da mass increase upon methylation. Enzymatic reactions were evaluated using standard conditions (1 µM SETD3, 10 µM βA, 100 µM SAM) in methylation buffer (25 mM Tris, 20 mM NaCl, pH = 9.0 at 37 °C)[21]. The enzymatic reaction was quenched with 10% TFA in MilliQ water (1:1 v/v) at 1 h and 3 h before mass spectrometric analysis (Figs . 4 and S3-S4). […] Finally, azide-alkyne Cu^I-mediated Huisgen 1,3-dipolar cycloaddition yields peptide 11 that was poorly (14%) methylated by SETD3 after 3 h under standard conditions (Figs. 4L and S4L). […] Taken together, these findings illustrate an overall preference of human SETD3 for flexible βA peptides, which facilitates βA-H73 insertion into the active site. Introduction of flexible macrocycles results in an overall reduced methylation by SETD3, while bulky or rigidifying moieties present within the macrocycles render the βA peptides non-reactive to methylation by SETD3.
Fig. 4 MALDI-TOF MS data showing SETD3-catalyzed (1 µM) methylation of βA peptides (10 µM) in the presence of SAM (100 µM) in reaction buffer (25 mM Tris, 20 mM NaCl, pH = 9.0) after 3 h at 37 °C. (A) βA, (B) 1, (C) 2, (D) 3, (E) 4, (F) 5, (G) 6, (H) 7, (I) 8, (J) 9, (K) 10, (L) 11. Control reactions in the absence of SETD3 are shown in black, whereas SETD3-catalyzed reactions are shown in red.
SETD3 substrate scope experiments towards βA peptides were performed by incubation of βA peptides (10 µM) in methylation buffer (25 mM Tris, 20 mM NaCl, pH = 9.0) in the presence of SAM (100 µM) and SETD3 (1 µM) in a final volume of 50 µL for 1 and 3 h at 37 °C while shaking at 750 rpm in an Eppendorf Thermomixer C. The reaction was quenched by addition of 10% TFA in MilliQ H2O (1:1). The reactions were aliquoted and mixed with α-cyano-4-hydroxycinnamic acid dissolved in MilliQ H2O and ACN (1:1, v/v) with 0.1% TFA. The aliquots were loaded onto a MTP 384 polished steel target for MALDI-TOF analysis using a UltrafleXtreme and conversion to methylated product was monitored.

Series [2] concerns the target T1, human SETD3. In words: MALDI-TOF MS methylation kinetics assay (Michaelis-Menten, steady state). It is filed as biochemical. The conditions noted are these: 200 nM SETD3, 3.125-150 µM peptide, 100 µM SAM, pH 9.0, 37 °C; for Km / kcat: 25 mM Tris, 20 mM NaCl, MALDI-TOF MS, duplicate, mean ± SE, SEM. The procedure: (§1) Catalytic efficiencies were explored for SETD3-catalyzed methylation of linear βA peptides 1, 6, 8 and 10 (Fig. 5; Table 1). Kinetic parameters were determined using MALDI-TOF MS assays under steady-state conditions by incubation with saturating amounts of SAM (100 µM)[23]. Addition of SETD3 (200 nM) to varying concentrations of linear βA peptides (0–150 µM) in reaction buffer initiated the reaction, upon which the mixture was incubated at 37 °C and quenched at timepoints that guarantee v0-reaction rates for SETD3-catalyzed methylation.
(§2) Fig. 5 Michaelis–Menten kinetics of linear βA peptides at varying concentrations (3.125-150 µM) by SETD3 (200 nM) in presence of saturating amounts of SAM (100 µM) in reaction buffer (25 mM Tris, 20 mM NaCl, pH = 9.0) at 37 °C.
(§3) Kinetics evaluation was carried out with a MALDI-TOF MS assay under steady state conditions. βA peptides (3.125–150 µM) and SAM (100 µM) were dissolved in methylation buffer (25 mM Tris, 20 mM NaCl, pH = 9.0), upon which the reaction was initiated by addition of SETD3. Reactions were incubated at 37 °C and shaken at 750 rpm Eppendorf Thermomixer C for 30 min, upon which the reactions were quenched by addition of 10% TFA in MilliQ water (1:1). Reactions were aliquoted and mixed with α-cyano-4-hydroxycinnamic acid dissolved in MilliQ H2O and ACN (1:1, v/v) with 0.1% TFA. The aliquots were loaded onto a MTP 384 polished steel target for MALDI-TOF analysis using a UltrafleXtreme. Methylated product was quantified by determining the combined integrals of the various ionic species of the methylated product. Kinetic parameters were subsequently determined by plotting V0 values and actin peptide concentrations and fitting them to the Michaelis–Menten equation using GraphPad Prism software. Experiments were performed in duplicate and values are reported as mean [drawing 1] standard error (SE) (Figs. S3-S4).

Series [3] deals with T2, human SETD3 histidine methyltransferase (human, UniProt Q86TU7 1-594).
T2 sequence (looked up): T1 sequence (Q86TU7 1-594)

The target in series [4] is human SETD3 histidine methyltransferase (human) (UniProt Q86TU7).
Substrate in series [5]: CC[C@H](C)[C@H](NC(=O)CNC(=O)[C@H](Cc1c[nH]cn1)NC(=O)[C@H](CCC(=O)O)NC(=O)[C@@H](NC(=O)[C@@H]1CCCN1C(=O)[C@H](Cc1ccc(O)cc1)NC(=O)[C@H](CCCCN)NC(=O)[C@H](CC(C)C)NC(=O)[C@@H](N)[C@@H](C)O)[C@@H](C)CC)C(=O)N[C@H](C(=O)N[C@H](C(=O)N[C@@H](CC(N)=O)C(=O)N[C@@H](Cc1c[nH]c2ccccc12)C(=O)N[C@@H](CC(=O)O)C(=O)N[C@@H](CC(=O)O)C(N)=O)[C@@H](C)O)C(C)C
The series is described as follows: MALDI-TOF MS methylation kinetics assay (Michaelis-Menten, steady state). The format is biochemical, human. As to conditions: other: 200 nM SETD3, 3.125-150 µM peptide, 100 µM SAM, 25 mM Tris, 20 mM NaCl, pH 9.0, 37 °C, duplicate, mean ± SE. The procedure:
as §1, §2, §3

In the case of `CC[C@H](C)[C@H](NC(=O)[C@@H]1CCCN1C(=O)[C@H](Cc1ccc(O)cc1)NC(=O)[C@H](CCCCN)NC(=O)[C@H](CC(C)C)NC(=O)[C@@H](N)[C@@H](C)O)C(=O)N[C@H]1CCC(=O)NCCCC[C@@H](C(=O)N[C@H](C(=O)N[C@H](C(=O)N[C@@H](CC(N)=O)C(=O)N[C@@H](Cc2c[nH]c3ccccc23)C(=O)N[C@@H](CC(=O)O)C(=O)N[C@@H](CC(=O)O)C(N)=O)[C@@H](C)O)C(C)C)NC(=O)CNC(=O)[C@H](Cc2c[nH]cn2)NC1=O` [compound 9] (H-TLKYPIEHGKVTNWDD-NH2; lactam 7-10), the “SETD3-catalyzed methylation after 3 h” value in series [1] was found to be 25%.

For “TLKYPICHGCVTNWDD (also: sidechain bridge or staple (positions not given here)) [compound 2, stapled bis-thiol alkylated βA peptide]”, in series [1], the “SETD3-catalyzed methylation after 3 h” value came to 30%.

Turning to “TLKYPICHGCVTNWDD (also: sidechain bridge or staple (positions not given here)) [compound 3, stapled bis-thiol alkylated βA peptide]”, the “SETD3-catalyzed methylation after 3 h” value in series [1] was 35%.

Regarding “TLKYPICHGCVTNWDD (also: sidechain bridge or staple (positions not given here)) [compound 4, βA peptide stapled with hexafluorobenzene]”, in series [1], the “SETD3-catalyzed methylation after 3 h (in words)” value is listed as “inert to methylation”.

Consider “TLKYPICHGCVTNWDD [compound 1, linear dicysteine βA66-81 control peptide]”, for which the “SETD3-catalyzed methylation (conversion) within 1 h” value in series [1] is “full conversion”. Further, in series [2], the Km is 75.7 ± 20 µM, the kcat was determined as 0.983 ± 0.125 s⁻¹ and the kcat/Km was determined as 13000 M⁻¹ s⁻¹.

Consider “TLKYPIEHG[Orn]VTNWDD (also: sidechain bridge or staple (positions not given here)) [compound 7, i, i + 3 lactam-bridged βA peptide (Glu72-Orn75)]”, for which the “SETD3-catalyzed methylation after 3 h” value in series [1] came out at 41%.

In the case of “TLKYPIEHG[Orn]VTNWDD [compound 6, linear lactam control, βA-I75 substituted by Orn]”, the “SETD3-catalyzed methylation (conversion) within 1 h” value in series [1] is on record as “completely methylated”. In series [2], the Km is 45.2 ± 8.1 µM, the kcat stood at 3.68 ± 0.267 s⁻¹ and the specificity constant (kcat/Km) came to 81800 M⁻¹ s⁻¹.

On to “TLKYPILys(N3)HGPraVTNWDD (sidechain bridge or staple) [compound 11, triazole-stapled βA peptide from azide-alkyne cycloaddition of 10]”, for which the “SETD3-catalyzed methylation after 3 h” value in series [1] is reported as 14%.

On to “TLKYPILys(N3)HGPraVTNWDD [compound 10, linear click-control with azido-lysine and propargylglycine]”, for which the “SETD3-catalyzed methylation after 3 h (in words)” value in series [1] is recorded as “full conversion”. Besides, in series [2], the Km amounted to 77.8 ± 14 µM, the kcat stood at 1.72 ± 0.15 s⁻¹ and the catalytic efficiency (kcat/Km) stood at 22000 M⁻¹ s⁻¹.

As for “linear βA peptide 6 (Ile75 replaced by ornithine) (from UniProt P60709 66-81)”, in series [3], the Km of SETD3-catalysed methylation, MALDI-TOF MS steady-state kinetics (200 nM SETD3, 100 µM SAM, pH 9.0, 37 °C) is 45.2 µM; the kcat of SETD3-catalysed methylation, MALDI-TOF MS steady-state kinetics (200 nM SETD3, 100 µM SAM, pH 9.0, 37 °C) stood at 221 min^-1; the kcat/Km of SETD3-catalysed methylation, MALDI-TOF MS steady-state kinetics (200 nM SETD3, 100 µM SAM, pH 9.0, 37 °C) amounted to 4.91 µM^-1min^-1.

On to “linear βA peptide 8 (I75K) (from UniProt P60709 66-81)”, for which, in series [4], the Km of SETD3-catalysed methylation, MALDI-TOF MS steady-state kinetics (200 nM SETD3, 100 µM SAM, pH 9.0, 37 °C) amounted to 25.1 µM; the kcat of SETD3-catalysed methylation, MALDI-TOF MS steady-state kinetics (200 nM SETD3, 100 µM SAM, pH 9.0, 37 °C) was determined as 246 min^-1; the kcat/Km of SETD3-catalysed methylation, MALDI-TOF MS steady-state kinetics (200 nM SETD3, 100 µM SAM, pH 9.0, 37 °C) was determined as 9.8 µM^-1min^-1.

B1: human SETD3 (Homo sapiens) (protein)
chain: T1 sequence (Q86TU7 1-594)
notes: His6 (N); made in house; host or cells: E. coli BL21(DE3)
For B1, in series [5], the Km came to 25.6 ± 4.9 µM, the kcat is 2.47 ± 0.145 s⁻¹ and the kcat/Km was found to be 96300 M⁻¹ s⁻¹.
